Measured values reported in patent publication US5952000A, “Fatty acid esters of lactic acid salts as permeation enhancers” (TheraTech, Inc., priority 1997, dated 1999).

Assays:
[1] = In vitro skin flux, diclofenac from adhesive matrix systems (Example 8); type: in vitro ADME, human
Description: The effect of fatty acid lactylate salts on the permeation of a model acidic drug from some copolymer adhesive matrix systems was evaluated using diclofenac, a non-steroidal anti-inflammatory. The following matrix systems were prepared to test the effect of fatty acid lactylate salts on the permeation of this acidic compound from copolymer adhesives: (a) Diclofenac acid at 1.8% (w/w) in Durotak 87-2516 (National Starch and Chemical, New Jersey), a solvent based acrylic adhesive, at 92.8% (w/w) (Formula 8-A); (b) sodium diclofenac at 2.0% (w/w) in Nacor 72-9965 (National Starch and Chemical Company, New Jersey), an aqueous emulsion based acrylic adhesive, at 98% (w/w) (Formula 8-C); sodium diclofenac at 2.0% (w/w) and Robond PS-20 (Rohm and Haas, Philadelphia, Pa.) an aqueous emulsion based acrylic adhesive, at 93.6% (w/w) with polyvinylpyrrolidone (PVP, Kollidon 90, BASF, New Jersey) at 2.0% (w/w) as a thickening agent (Formula 8-E).

[2] = In vitro skin flux, testosterone from hydroalcoholic gel (Example 2)
Description: (§1) In vitro skin flux studies were conducted using human cadaver epidermal membrane in modified Franz non-jacketed diffusion cells. […] This method involves the exposure of the full-thickness skin to water at 60° C. for a time period of 60 seconds. After this period, the epidermal membrane was gently peeled off the dermis and stored for later use in aluminum foil at -5° C.
Permeation experiments with hydroalcoholic gels were performed using finite occluded doses. The occluded dose is an appropriate in vitro model for the application of a transdermal patch drug delivery system containing a liquid or gel reservoir.
Occluded dosing experiments were set-up according to the following procedure. […]
(§2) The following sampling procedure was used for all dosage forms. At predetermined sampling time points, the entire contents of the receiver compartment were collected for drug quantitation and the receiver compartment was filled with fresh solution, taking care to eliminate any air bubbles at the skin/solution interface. The cumulative amount of drug permeated per unit area at any time t(Qt, μg/cm^2) was determined as follows: [formula] where CN is the concentration (μg/ml) of the drug in the receiver sample for the corresponding sample time, V is the volume of fluid in the receiver chamber (~6.3 cm^3), and A is the diffusional area of the cell (0.64 cm^2). […]

[3] = In vitro skin flux, testosterone from saturated aqueous solution (Example 1)
Description: as §1
Permeation experiments with aqueous solutions were performed using pre-saturated drug solutions containing excess drug solid (infinite dose). Prior to skin permeation experiments, the epidermal membrane was allowed to hydrate over night as described above. […]
as §2

[4] = In vitro skin flux, estradiol from organic solvent based adhesive matrix (Example 3); type: in vitro ADME, human; details: organic solvent based acrylic PSA; vs free acid form
Description: Pressure sensitive adhesive matrix systems prepared according to the following steps. First, the solids content of the adhesive solution (water or organic solvent based) was determined by placing a known weight of solution in a weighed aluminum dish and evaporating the solvents overnight in a 70° C. convection oven. The solid adhesive content of the solution was calculated by dividing the adhesive solid weight after drying by the initial total solution weight. Next, a weighed quantity of adhesive solution was added to a glass bottle and the drug substance, permeation enhancer, and other excipients were weighed and added to the adhesive solution in a quantity necessary to achieve the desired dry matrix film composition. […]
The following sampling procedure was used for all dosage forms. At predetermined sampling time points, the entire contents of the receiver compartment were collected for drug quantitation and the receiver compartment was filled with fresh solution, taking care to eliminate any air bubbles at the skin/solution interface. The cumulative amount of drug permeated per unit area at any time t(Qt, μg/cm^2) was determined as follows: [formula] where CN is the concentration (μg/ml) of the drug in the receiver sample for the corresponding sample time, V is the volume of fluid in the receiver chamber (~6.3 cm^3), and A is the diffusional area of the cell (0.64 cm^2).

[5] = In vitro skin flux, clonidine from adhesive matrix systems (Example 7); type: in vitro ADME, human
Description: Permeation enhancement by a fatty acid lactylate salt was also evaluated with the basic antihypertensive drug clonidine in both free base and HCl acid addition salt forms. […] (Formulas 7-B, 7-D, 7-F and 7-H respectively).

[6] = In vitro skin flux, buspirone HCl from aqueous emulsion based acrylic PSA (Example 4); type: in vitro ADME, human
Description: Permeation enhancement of the potassium salt form of lauroyl lactylic acid (R.I.T.A. Corp., Woodstock, Ill.) in an aqueous emulsion based acrylic pressure sensitive adhesive (PSA) was evaluated using buspirone HCl as a model drug.

[7] = In vitro skin flux, buspirone free base from organic solvent based acrylic adhesive (Example 5); type: in vitro ADME, human; details: organic solvent based acrylic PSA
Description: Permeation enhancement of the potassium salt form of lauroyl lactylic acid using buspirone free base as a model drug was evaluated in an organic solvent based acrylic pressure sensitive adhesive.

| Compound | enhancement by free acid form compared with Formulas 8-D and 8-F (in words) ([1]; aqueous emulsion based adhesives, "will show") | enhancement by free acid form compared with Formula 8-B (in words) ([1]; solvent based adhesive, "will show") | permeation enhancement (in words) [2] | permeation enhancement (in words) [3] | effectiveness as permeation enhancer (in words) [4] | increase of clonidine permeation over unenhanced counterpart ([5]; aqueous emulsion based matrix systems, Tables 7-1, 7-2, 7-3) | effectiveness as enhancer (in words) ([5]; clonidine HCl, aqueous emulsion based matrix systems) | effectiveness as enhancer (in words) ([5]; clonidine base, organic solvent based adhesive matrix, Table 7-4) | increase in permeation, acid form of diclofenac ([1]; […] sodium lauroyl lactylate, Table 8-1) | effectiveness as enhancer (in words) ([1]; all of the matrix systems tested) | effectiveness as permeation enhancer (in words) [6] | effectiveness as permeation enhancer (in words) [7] |
| --- | --- | --- | --- | --- | --- | --- | --- | --- | --- | --- | --- | --- |
| CCCCCCCCCCCC(=O)OC(C)C(=O)O (centres unmarked) [lauroyl lactylic acid, reference compound] | significant reduction in enhancement | somewhat comparable results | significant permeation enhancement | significant permeation enhancement | – | – | – | – | – | – | – | – |
| CCCCCCCCCCCC(=O)OC(C)C(=O)OC(C)C(=O)[O-].[Na+] (centres unmarked) [sodium lauroyl lactylate] | – | – | significant permeation enhancement | significant permeation enhancement | less effective as a permeation enhancer than the free acid form | about two fold | consistently effective enhancer | not an effective enhancer | about 50% | consistently effective enhancer | – | – |
| potassium lauroyl lactylate | – | – | – | – | – | – | – | – | – | – | unexpectedly effective permeation enhancer | not an effective permeation enhancers |
